In assay [1] the target is Glutamate dehydrogenase 1, mitochondrial (Bos taurus) (UniProt P00366). Kind of assay: Binding affinity to bovine glutamate dehydrogenase ATP binding site using assessed as photo labeling level at 80 uM by photo affinity labeling/reverse-phase HPLC of Lys-Cdigest assay in presence of ADP.
The target is the same in assay [2]. Kind of assay: Binding affinity to bovine glutamate dehydrogenase ATP binding site using assessed as fluorescence intensity at 80 uM by photo affinity labeling/reverse-phase HPLC of Lys-Cdigest assay in presence of ATP.
For assay [3] the target is unchanged. Description: Binding affinity to bovine glutamate dehydrogenase ATP binding site using assessed as photo labeling level at 80 uM by photo affinity labeling/reverse-phase HPLC of Lys-Cdigest assay in presence of NADH.
Assay [4] shares this target. Description: Binding affinity to bovine glutamate dehydrogenase ATP binding site using assessed as decrease in photo labeling peak time at 80 uM by photo affinity labeling/reverse-phase HPLC of Lys-Cdigest assay in presence of 100 uM NADH/10 mM glutamate relative to NADH alone.
The target is the same in assay [5]. Kind of assay: Binding affinity to bovine glutamate dehydrogenase ATP binding site using assessed as coumarin-labeled pepdite retention time at 80 uM by photo affinity labeling/reverse-phase HPLC of Lys-Cdigest assay in presence of ATP.
Assay [6] shares this target. Kind of assay: Binding affinity to bovine glutamate dehydrogenase ATP binding site using assessed as photo labeling peak time at 80 uM by photo affinity labeling/reverse-phase HPLC of Lys-Cdigest assay in presence of 100 uM NADH/10 mM glutamate.
Assay [7] shares this target. Kind of assay: Binding affinity to bovine glutamate dehydrogenase ATP binding site using assessed as photo labeling level at 80 uM by photo affinity labeling/reverse-phase HPLC of Lys-Cdigest assay in presence of ATP.

The structures appear in SMILES notation. Calls of active or inactive are those of the source. The rule behind the calls is not given here.

Here are results for two compounds from ChEMBL document CHEMBL3399953, “Structure-assisted ligand-binding analysis using fluorogenic photoaffinity labeling” (Bioorg Med Chem Lett, 2015).

Chain of Glutamate dehydrogenase 1, mitochondrial (Bos taurus) (P00366 whole entry): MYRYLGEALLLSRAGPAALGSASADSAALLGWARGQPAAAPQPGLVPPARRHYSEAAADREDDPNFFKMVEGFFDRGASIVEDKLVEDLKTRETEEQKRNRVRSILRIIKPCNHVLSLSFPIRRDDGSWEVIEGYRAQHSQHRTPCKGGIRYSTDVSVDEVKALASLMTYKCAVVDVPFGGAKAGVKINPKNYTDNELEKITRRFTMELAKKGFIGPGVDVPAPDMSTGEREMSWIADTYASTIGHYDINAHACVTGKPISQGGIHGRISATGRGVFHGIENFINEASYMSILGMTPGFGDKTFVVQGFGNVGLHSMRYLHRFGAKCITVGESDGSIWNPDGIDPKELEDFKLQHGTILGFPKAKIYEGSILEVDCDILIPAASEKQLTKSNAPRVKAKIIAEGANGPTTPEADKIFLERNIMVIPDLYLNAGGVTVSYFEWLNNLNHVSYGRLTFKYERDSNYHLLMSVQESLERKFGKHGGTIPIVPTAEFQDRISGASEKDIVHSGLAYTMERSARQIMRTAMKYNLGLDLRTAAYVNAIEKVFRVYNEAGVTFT

Regarding `C/C(=C\c1ccc(C2(C(F)(F)F)N=N2)cc1O)C(=O)NCCNP(=O)(O)OP(=O)(O)OC[C@H]1O[C@@H](n2cnc3c(N)ncnc32)[C@H](O)[C@@H]1O`, the outcome in assay [1] and in assay [2] was Active.

Regarding `C/C(=C\c1ccc(C2(C(F)(F)F)N=N2)cc1O)C(=O)NCCNP(=O)(O)OP(=O)(O)OP(=O)(O)OC[C@H]1O[C@@H](n2cnc3c(N)ncnc32)[C@H](O)[C@@H]1O`, the Activity in assay [3] stood at 89%; in assay [1] it was 10%; in assay [7] it was 55%. Also, the inhibition in assay [4] came to 59%. Moreover, the Retention time in assay [5] and in assay [6] was 21.1 min each time. Further, in assay [2], the result was Active.
